Key:
[1] = test system: acute DSS-induced colitis; assay: Acute DSS-induced colitis model; type: in vivo, C57BL/6 mice
Text: C57BL/6 (Taconic, Cambridge City, IN) for the DSS model of colitis, as well as C57BL/6 and Rag1^−/− mice (Jackson Laboratory, Bar Harbor, ME) for the T-cell transfer model, were kept in sterilized, filter-topped cages under specific pathogen-free conditions upon arrival and fed autoclaved food. Male mice aged 8–10 wk were used for all experiments. Mice were acclimatized for 7 days before the start of any experiments. All experiments were approved by the animal ethics committee of McMaster University and conducted under Canadian guidelines for animal research.
For induction of acute colitis, DSS (molecular mass 40 kDa; ICN; Biomedicals Incorporate, Solon, OH) was added to autoclaved drinking water at a final concentration of 4 or 5% wt/vol for 5 days. For the induction of chronic colitis, DSS was added to normal drinking water at a final concentration of 4% for 5 days, followed by 7 days of water. This cycle was repeated twice thereafter, with 2% DSS. Control mice received vehicle or normal drinking water.
For acute DSS-induced colitis, C576BL/6 mice were treated with MC-170073 (10 mg/kg of body wt) or vehicle (10% DMSO in normal saline) via intraperitoneal injection once daily for 6 days, starting 1 day before the beginning of DSS. In a separate experiment, C57BL/6 mice were orally administered with MC-230078 (10 mg/kg) or vehicle twice daily for 5 days, starting from the beginning of DSS. For chronic DSS-induced colitis, C57BL/6 mice were treated with MC-170073 (10 mg/kg ip) or vehicle once daily for 6 days, starting 1 day before the beginning of the third cycle. Last, for CD4^+CD45RB^high T cell-induced chronic colitis, reconstituted Rag1^−/− mice were orally administered MC-230078 (5 mg/kg or 10 mg/kg) or a vehicle twice daily for 10 days starting from week 6 post-reconstitution of T cells.
Disease activity index (DAI) is a combined score of weight loss, stool consistency, and fecal bleeding and was blindly assessed using a previously published scoring system ([19]). This scoring system was defined as follows: weight loss: 0 = no loss; 1 = 1–5%; 2 = 5–10%; 3 = 10–20%; 4 = 20%+; stool, 0 = normal; 2 = loose stool; 4 = diarrhea; and bleeding: 0 = no blood; 2 = hemoccult positive (Hemoccult II; Beckman Coulter, Fullerton, CA); and 4 = gross blood (blood around anus). DAI was measured across all days of DSS treatment. Macroscopic damage scores were blindly scored using a previously published scoring system for DSS-induced colitis ([19]).
Colonic myeloperoxidase (MPO) levels were measured following a published protocol ([19]). Briefly, colonic tissue samples were homogenized in ice-cold 50 mmol·L^−1 potassium phosphate buffer containing 0.5% hexadecyl trimethyl ammonium bromide (pH = 6.0) (Sigma). Homogenates were centrifuged, the supernatant was removed, and an aliquot was then added to a solution containing potassium phosphate buffer, O-dianisidine, and hydrogen peroxide (Sigma-Aldrich). The absorbance was measured at 450 nm by a spectrophotometer (model EL808, BioTek). MPO level was expressed in units per milligram of tissue, where 1 U is defined as the quantity of enzyme able to convert 1 μmol hydrogen peroxide to water per minute at room temperature.
Segments of the proximal colon were washed with PBS, fixed in 10% neutral-buffered formalin, washed with ethanol, and embedded in paraffin. Hematoxylin-eosin (H&E)-stained colonic tissue sections were scored using a previously published system ([19]): crypt architecture (normal = 0; severe crypt distortion with loss of entire crypts = 3), degree of inflammatory cell infiltration (normal = 0; dense inflammatory infiltrate = 3), muscle thickening (base of crypt sits on the muscularis mucosae = 0; marked muscle thickening present = 3), goblet cell depletion (absent = 0; present = 1), and crypt abscess (absent = 0; present = 1). A breakdown of scoring criteria can be seen in Supplemental Table S1. The histological damage score is the sum of each individual score. […]

[2] = Mouse in vivo pharmacokinetic studies; design: species or system C57BL/6 male mice; conditions: for bioavailability / AUC / Cmax / Tmax / clearance / half-life: male; for bioavailability: C57BL/6, mouse, plasma, oral, read-out: %F (oral bioavailability); for AUC / Cmax / Tmax / clearance / half-life: C57BL/6, plasma
Procedure: Adult C57BL/6 male mice (2–4 mo old, body weight ranging from 20 to 25 g, Charles River Laboratories) were maintained under controlled temperature (23 ± 1°C) and lighting (lights on 6:00 AM–6:00 PM) with food and water provided ad libitum. Pharmacokinetic studies were performed either via intravenous bolus infusion or through oral gavage. Mice were administered each compound intravenously by tail vein injection (1 mg/kg) or orally through gavage (5 mg/kg). Serial blood samples were collected at 5, 15, and 30 min and 1, 2, 4, 8, and 24 h after intravenous administration, and at 15, 30 min, and 1, 2, 4, 8, and 24 h after oral gavage administration. All blood samples were centrifuged at 1,500 g for 5 min. Pharmacokinetic study procedures were approved by Temple University’s Institutional Animal Care and Usage Committee and were in accordance with National Institutes of Health (NIH) guidelines. For all in vivo efficacy studies, experiments were approved by the animal ethics committee of McMaster University and conducted under Canadian guidelines for animal research.
Plasma concentrations were determined using an LC-MS/MS method. Briefly, 100-µL acetonitrile with an internal standard solution (Diltiazem, 0.1 μg/mL) was added to 50-µL plasma or tissue homogenate. After being vortexed for 1 min, the mixture was centrifuged at 3,000 g for 5 min. LC-MS/MS analysis was carried out using a high-performance liquid chromatography system consisting of an Agilent 1100 system interfaced to an API4000 SCIEX triple-quadrupole tandem mass spectrometer (Applied Biosystems/MDS Sciex, Foster City, CA). MC-170073, MC-230078, MC-230079, and the internal standard were separated by using a Phenomenex (Torrance, CA) C18 column (2.0 × 50 mm). The mobile phase consisted of solvent A (0.1% formic acid in water) and solvent B (0.1% formic acid in acetonitrile). A linear gradient of solvent B from 5 to 95% was used. The detection and quantification of analytes were performed with the m/z transition 347/191 for MC-170073, MC-230078, and MC-230079, and m/z 415/178 for diltiazem.

[3] = 4% DSS 5 days, 10 mg/kg ip once daily 6 days
[4] = 4% DSS 5 days, 10 mg/kg ip once daily 6 days, vs vehicle-treated mice
[5] = 5 mg/kg, 5 mg/kg oral vs 1 mg/kg IV
[6] = 5% DSS 5 days, 10 mg/kg orally twice daily 5 days
[7] = 5% DSS, 10 mg/kg orally twice daily 5 days
[8] = 5% DSS, 10 mg/kg orally twice daily, day 5 post-DSS vs vehicle

SMILES	bioavailability [2, 5] [%]	AUC ([2]; IV, 1 mg/kg) [ng·h/mL]	Cmax ([2]; IV, 1 mg/kg) [ng/mL]	Tmax ([2]; IV, 1 mg/kg) [h]	clearance ([2]; IV, 1 mg/kg) [mL/min]	half-life ([2]; IV, 1 mg/kg) [h]	AUC ([2]; oral gavage, 5 mg/kg) [ng·h/mL]	Cmax ([2]; oral gavage, 5 mg/kg) [ng/mL]	Tmax ([2]; oral gavage, 5 mg/kg) [h]	half-life ([2]; oral gavage, 5 mg/kg) [h]	CL ([2]; oral gavage, 5 mg/kg) [L/h]	other results
CCC1(CC)CC(CCN2CCN(c3ccc(O)cc3)CC2)OC1=O (stereo not drawn) [MC-170073]	17	142	81	0.25	2.08	4.4	124	49	0.25	3.4	0.73	colonic IL-1β level [1, 3]: lower levels; colonic IL-6 level [1, 3]: lower levels; colonic MPO level [1, 3]: lower levels; colonic TNF-α level [1, 3]: lower levels; DAI scores [1, 4]: significantly lower; histological damage scores [1, 4]: significantly less severe; macroscopic scores [1, 4]: lower; %F (oral bioavailability) ([2]; 5 mg/kg oral vs 1 mg/kg IV): 17.5%
CCC1(CC)C[C@@H](CCN2CCN(c3ccc(O)cc3)CC2)OC1=O [MC-230078]	13.7	277	527	0.083	1.4	3.97	190	123	0.5	3.78	0.511	DAI [1, 6]: significantly lower; body weight change during DSS [1, 6]: no significant difference; colonic IL-1β level [1, 7]: significantly lower; colonic MPO level [1, 7]: significantly lower; histological scores [1, 8]: significantly lower; macroscopic scores [1, 8]: significantly lower

— article PMC11550998, “Novel 5-HT7 receptor antagonists modulate intestinal immune responses and reduce severity of colitis” (American Journal of Physiology - Gastrointestinal and Liver …, 2024)
